BindingDB's records for doi:10.1021/jm400944k (China Pharmaceutical University, 2013)

Target: T1, Nuclear factor erythroid 2-related factor 2 (Homo sapiens, UniProt Q16236)
T1 sequence (Q16236 whole entry): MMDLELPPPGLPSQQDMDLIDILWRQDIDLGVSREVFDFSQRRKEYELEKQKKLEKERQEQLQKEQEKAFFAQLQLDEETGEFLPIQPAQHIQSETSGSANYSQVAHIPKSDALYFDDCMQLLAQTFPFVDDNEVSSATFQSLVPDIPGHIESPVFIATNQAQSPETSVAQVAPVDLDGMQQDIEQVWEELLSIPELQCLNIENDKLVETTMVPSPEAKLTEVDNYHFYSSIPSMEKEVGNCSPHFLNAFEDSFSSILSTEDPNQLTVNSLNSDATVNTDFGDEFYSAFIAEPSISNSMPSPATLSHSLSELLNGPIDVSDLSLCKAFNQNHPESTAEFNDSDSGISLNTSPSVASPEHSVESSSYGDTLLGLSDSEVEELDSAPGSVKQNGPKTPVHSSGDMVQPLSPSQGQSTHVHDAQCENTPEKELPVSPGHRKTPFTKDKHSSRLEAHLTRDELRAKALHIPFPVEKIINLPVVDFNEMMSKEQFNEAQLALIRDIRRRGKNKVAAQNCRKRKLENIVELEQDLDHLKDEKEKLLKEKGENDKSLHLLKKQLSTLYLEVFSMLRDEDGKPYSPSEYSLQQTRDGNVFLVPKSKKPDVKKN
Experiment: Induction of Nrf2-mediated ARE activity in human HepG2-ARE-C8 cells after 12 hrs by luciferase reporter gene assay

Compound	EC50
COc1cc2c(cc1OC)C1CN/C(=C\C(=O)c3ccccc3F)C(=O)N1CC2 (configuration not stated)	75.9 µM
COc1ccc2c(c1)CCN1C(=O)/C(=C/C(=O)c3ccccc3F)NCC21 (configuration not stated)	> 100 µM
O=C(/C=C1\NCC2c3ccccc3CCN2C1=O)c1ccc(F)cc1 (configuration not stated)	> 100 µM
O=C(/C=C1\NCC2c3ccccc3CCN2C1=O)c1ccccc1F (configuration not stated)	> 100 µM
O=C(/C=C1\NCC2c3ccccc3CCN2C1=O)c1cccc(F)c1 (configuration not stated)	> 100 µM
O=C(/C=C1\NCC2c3ccccc3CCN2C1=O)c1ccc(Cl)cc1 (configuration not stated)	> 100 µM
O=C(/C=C1\NCC2c3ccccc3CCN2C1=O)c1ccc(F)c(F)c1 (configuration not stated)	> 100 µM
O=C(/C=C1\NCC2c3ccccc3CCN2C1=O)c1ccccc1 (configuration not stated)	> 100 µM
COc1ccc2c(c1)C1CN/C(=C\C(=O)c3cccc([N+](=O)[O-])c3)C(=O)N1CC2 (configuration not stated)	> 100 µM
COc1ccc2c(c1)C1CN/C(=C\C(=O)c3ccccc3)C(=O)N1CC2 (configuration not stated)	> 100 µM
COc1ccc2c(c1)C1CN/C(=C\C(=O)c3ccc(F)cc3)C(=O)N1CC2 (configuration not stated)	88 µM
COc1cccc(C(=O)/C=C2\NCC3c4ccccc4CCN3C2=O)c1 (configuration not stated)	> 100 µM
COc1cc2c(cc1OC)C1CN/C(=C\C(=O)c3cccc(Cl)c3)C(=O)N1CC2 (configuration not stated)	> 100 µM
COc1cccc(C(=O)/C=C2\NCC3c4cc(OC)c(OC)cc4CCN3C2=O)c1 (configuration not stated)	> 100 µM
COc1cccc(C(=O)/C=C2\NCC3c4cc(OC)ccc4CCN3C2=O)c1 (configuration not stated)	> 100 µM
COc1ccc2c(c1)C1CN/C(=C\C(=O)c3cccc(Cl)c3)C(=O)N1CC2 (configuration not stated)	> 100 µM
O=C(/C=C1\NCC2c3ccccc3CCN2C1=O)c1cc(F)cc(F)c1 (configuration not stated)	58.9 µM
Cc1ccc(C(=O)/C=C2\NCC3c4ccccc4CCN3C2=O)cc1 (configuration not stated)	> 100 µM
COc1ccc2c(c1)CCN1C(=O)/C(=C/C(=O)c3ccccc3)NCC21 (configuration not stated)	> 100 µM
COc1cc2c(cc1OC)C1CN/C(=C\C(=O)c3ccccc3)C(=O)N1CC2 (configuration not stated)	> 100 µM
O=C(/C=C1\NCC2c3ccccc3CCN2C1=O)c1cccc([N+](=O)[O-])c1 (configuration not stated)	> 100 µM

Compound	EC50
O=C(/C=C1\NCC2c3ccccc3CCN2C1=O)c1cccc(Br)c1 (configuration not stated)	59.1 µM
O=C(/C=C1\NCC2c3ccccc3CCN2C1=O)c1cccc(Cl)c1 (configuration not stated)	> 100 µM
O=C(/C=C1\NCC2c3ccccc3CCN2C1=O)c1cccc(C(F)(F)F)c1 (configuration not stated)	> 100 µM
COc1ccc2c(c1)C1CN/C(=C\C(=O)c3cccc(F)c3)C(=O)N1CC2 (configuration not stated)	> 100 µM
COc1ccc(C(=O)/C=C2\NCC3c4ccccc4CCN3C2=O)cc1 (configuration not stated)	> 100 µM
COc1cc2c(cc1OC)C1CN/C(=C\C(=O)c3cccc([N+](=O)[O-])c3)C(=O)N1CC2 (configuration not stated)	49.6 µM
COc1ccc(C(=O)/C=C2\NCC3c4ccccc4CCN3C2=O)cc1OC (configuration not stated)	93 µM
O=C(/C=C1\NCC2c3ccccc3CCN2C1=O)c1ccc(Cl)cc1Cl (configuration not stated)	> 100 µM
COc1cc2c(cc1OC)C1CN/C(=C\C(=O)c3ccc(F)cc3)C(=O)N1CC2 (configuration not stated)	81.5 µM
COc1cc2c(cc1OC)C1CN/C(=C\C(=O)c3cccc(F)c3)C(=O)N1CC2 (configuration not stated)	92 µM
COc1ccc2c(c1)C1CN/C(=C\C(=O)c3ccccc3F)C(=O)N1CC2 (configuration not stated)	> 100 µM
COc1ccccc1C(=O)/C=C1\NCC2c3ccccc3CCN2C1=O (configuration not stated)	> 100 µM
O=C(/C=C1\NCC2c3ccccc3CCN2C1=O)c1ccccc1[N+](=O)[O-] (configuration not stated)	> 100 µM
COc1ccc2c(c1)CCN1C(=O)/C(=C/C(=O)c3cccc(F)c3)NCC21 (configuration not stated)	> 100 µM
COc1cccc2c1CCN1C(=O)/C(=C/C(=O)c3cccc(F)c3)NCC21 (configuration not stated)	> 100 µM
O=C(/C=C1\NCC2c3ccccc3CCN2C1=O)c1ccc([N+](=O)[O-])cc1 (configuration not stated)	> 100 µM
O=C(/C=C1\NCC2c3ccccc3CCN2C1=O)c1ccccc1Cl (configuration not stated)	> 100 µM
O=C(/C=C1\NCC2c3ccccc3CCN2C1=O)c1ccc(-c2ccccc2)cc1 (configuration not stated)	> 100 µM
CC(C)(C)c1cc(O)ccc1O [CHEBI:78886]	91.5 µM
COc1cccc2c1CCN1C(=O)/C(=C/C(=O)c3ccccc3)NCC21 (configuration not stated)	58.5 µM
COc1cccc2c1CCN1C(=O)/C(=C/C(=O)c3ccccc3F)NCC21 (configuration not stated)	> 100 µM
